Laboratory results published in patent publication US20110195425A1, “SYSTEMS AND METHODS FOR DIAGNOSING PARASITE INFECTIONS” (priority 2010, published 2011).
Values joined by “and” are separate entries in the source; they are usually repeats but may differ in a detail not shown here. Equal entries are not always repeated.

Assays:
peroxidase = assay: Peroxidase assay in saliva (Amplex Red); assay type: biochemical; conditions: single compounds at 500 ppm; pooled and unpooled saliva; 30 minutes; FIGS. 26-29
Method: To determine the effect of various GRAS compounds as inhibitors of peroxidase activity, a standard assay using Amplex® Red (Life Technologies), which releases a fluorescent oxidation product.
The test compounds, such as GRAS materials or cocktails of same, were prepared at a concentration of 500 ppm in distilled water. For the assay, 50 μl samples of test compounds were mixed with 20-30 μl of saliva (either “pooled” or “unpooled”) prior to the addition of Amplex® Red. Following the mixture of the test compounds with saliva, […] Amplex® Red/HRP working solution (See Protocol for Invitrogen Assay #A22188, which is incorporated herein in its entirety), which has a concentration of 100 μM of Amplex® Red, is added to the test compound/saliva mixture. […] Reactions were allowed to run for 30 minutes during these assays.

α-amylase = molecular target: T1, α-amylase (Homo sapiens, UniProt P0DUB6); assay: α-Amylase inhibition saliva screening (2-chloro-p-nitrophenol-maltotriose substrate, absorbance 405 nm); assay type: biochemical; conditions: for Ave (α-amylase assay reading): average of four readings; for α-amylase assay single reading (absorbance at 405 nm): saliva, test compound prepared at 5,000 ppm, 37° C., replicate readings
T1 sequence (P0DUB6 16-511): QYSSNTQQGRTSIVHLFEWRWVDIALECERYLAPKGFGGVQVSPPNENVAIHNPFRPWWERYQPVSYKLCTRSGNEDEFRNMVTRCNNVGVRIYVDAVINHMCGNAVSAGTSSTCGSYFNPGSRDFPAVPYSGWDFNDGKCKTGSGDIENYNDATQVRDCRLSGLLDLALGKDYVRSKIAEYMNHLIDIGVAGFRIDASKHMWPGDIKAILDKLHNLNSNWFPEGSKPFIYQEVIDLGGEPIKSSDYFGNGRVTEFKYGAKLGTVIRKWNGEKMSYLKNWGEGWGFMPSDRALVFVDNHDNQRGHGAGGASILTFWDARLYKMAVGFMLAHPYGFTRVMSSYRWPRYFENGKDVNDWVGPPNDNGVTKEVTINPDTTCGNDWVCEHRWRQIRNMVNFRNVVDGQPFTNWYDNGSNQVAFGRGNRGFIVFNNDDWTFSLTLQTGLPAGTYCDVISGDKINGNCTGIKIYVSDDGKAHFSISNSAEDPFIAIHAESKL
Excerpt: Enzymatic activity of α-amylase on the substrate yields 2-chloro-p-nitrophenol, which can be measured spectrophotometrically at 405 nm. The amount of α-amylase activity present in the experimental sample is directly proportional to the increase in absorbance at 405 nm.

Cn1c(=O)c2c(ncn2C)n(C)c1=O [CDI #33, Caffeine]
peroxidase inhibition (peroxidase): significant peroxidase inhibition capabilities

COc1ccc(O)c(C(C)(C)C)c1 [CDI-039, 3-tert--butyl-hydroxyanisole]
peroxidase inhibition (peroxidase): significant peroxidase inhibition capabilities

Aluminum potassium sulfate dodecahydrate [CDI-42]
peroxidase inhibition (peroxidase): significant peroxidase inhibition capabilities
Ave (α-amylase assay reading) (α-amylase; 0 min): 0.92
α-amylase assay single reading (absorbance at 405 nm) (α-amylase; 0 min): 0.80 and 1.13 and 0.90 and 0.84
Ave (α-amylase assay reading) (α-amylase; 5 min): 1.85
α-amylase assay single reading (absorbance at 405 nm) (α-amylase; 5 min): 1.65 and 2.15 and 1.80 and 1.81
Ave (α-amylase assay reading) (α-amylase; 15 min): 2.29
α-amylase assay single reading (absorbance at 405 nm) (α-amylase; 15 min): 2.37 and 2.38 and 2.25 and 2.17

Aluminum sulfate hydrate [CDI-34]
Ave (α-amylase assay reading) (α-amylase; 0 min): 0.40
α-amylase assay single reading (absorbance at 405 nm) (α-amylase; 0 min, sulfate hydrate): 0.40 (2×) and 0.36 and 0.45
Ave (α-amylase assay reading) (α-amylase; 5 min): 0.50
α-amylase assay single reading (absorbance at 405 nm) (α-amylase; 5 min, sulfate hydrate): 0.49 and 0.50 (2×) and 0.52
Ave (α-amylase assay reading) (α-amylase; 15 min): 0.56
α-amylase assay single reading (absorbance at 405 nm) (α-amylase; 15 min, sulfate hydrate): 0.53 and 0.61 and 0.54 and 0.56
